From ChEMBL document CHEMBL1671651, “Azithromycin in Pseudomonas aeruginosa biofilms: bactericidal activity and selection of nfxB mutants” (2009)
≈ marks a conversion by molar mass, not a printed value. Calls of active or inactive are those of the source. The rule behind the calls is not given here.

Legend:
[1] = tested on: Pseudomonas aeruginosa; assay: Bactericidal activity against mucA::lox-deficient Pseudomonas aeruginosa PAOMA biofilm assessed as reduction in bacterial load at => 4 ug/ml upto 7 days; assay type: functional, organism-based
[2] = tested on: Pseudomonas aeruginosa; assay: Antimicrobial activity against Pseudomonas aeruginosa PAO1 planktonic cells by microdilution method; assay type: functional
[3] = tested on: Pseudomonas aeruginosa; assay: Antimicrobial activity against mucA::lox, mutS::lox-deficient Pseudomonas aeruginosa PAOMSA planktonic cells by microdilution method; assay type: functional
[4] = tested on: Pseudomonas aeruginosa; assay: Bactericidal activity against mucA::lox, mutS::lox-deficient Pseudomonas aeruginosa PAOMSA biofilm assessed as increase in viable cells relative to […]; assay type: functional
[5] = tested on: Pseudomonas aeruginosa; assay: Bactericidal activity against mutS::lox-deficient Pseudomonas aeruginosa PAOMS biofilm assessed as increase in viable cells at 4 ug/ml for 4 days; assay type: functional, organism-based
[6] = tested on: Pseudomonas aeruginosa; assay: Bactericidal activity against Pseudomonas aeruginosa PAO1 biofilm assessed as reduction in bacterial load at 0.5 ug/ml for 7days measured on day 1; assay type: functional
[7] = tested on: Pseudomonas aeruginosa; assay: Bactericidal activity against mutS::lox-deficient Pseudomonas aeruginosa PAOMS biofilm assessed as reduction in bacterial load at 256 ug/ml for 7 days measured on day 1; assay type: functional
[8] = tested on: Pseudomonas aeruginosa; assay: Bactericidal activity against mutS::lox-deficient Pseudomonas aeruginosa PAOMS biofilm assessed as increase in viable cells at day 7 relative to wild-type; assay type: functional
[9] = tested on: Pseudomonas aeruginosa; assay: Antimicrobial activity against mutS::lox-deficient Pseudomonas aeruginosa PAOMS planktonic cells by microdilution method; assay type: functional
[10] = tested on: Pseudomonas aeruginosa; assay: Bactericidal activity against mucA::lox, mutS::lox-deficient Pseudomonas aeruginosa PAOMSA biofilm assessed as reduction in bacterial load at 256 ug/ml for 7 days measured on day 1; assay type: functional
[11] = tested on: Pseudomonas aeruginosa; assay: Bactericidal activity against mucA::lox, mutS::lox-deficient Pseudomonas aeruginosa PAOMSA biofilm assessed as increase in viable cells at 4 ug/ml for 7 days; assay type: functional, organism-based
[12] = tested on: Pseudomonas aeruginosa; assay: Bactericidal activity against mutS::lox-deficient Pseudomonas aeruginosa PAOMS biofilm assessed as reduction in bacterial load at 0.5 ug/ml for 7 days measured on day 1; assay type: functional
[13] = tested on: Pseudomonas aeruginosa; assay: Bactericidal activity against mucA::lox, mutS::lox-deficient Pseudomonas aeruginosa PAOMSA biofilm assessed as increase in viable cells at 16 ug/ml; assay type: functional, organism-based
[14] = tested on: Pseudomonas aeruginosa; assay: Bactericidal activity against mutS::lox-deficient Pseudomonas aeruginosa PAOMS biofilm assessed as increase in viable cells at 4 ug/ml for 7 days; assay type: functional, organism-based
[15] = tested on: Pseudomonas aeruginosa; assay: Antimicrobial activity against mexD gene-deficient Pseudomonas aeruginosa […] assessed as increase in viable cells at 0.5 to 4 ug/ml after 24 hrs relative to wild-type; assay type: functional
[16] = tested on: Pseudomonas aeruginosa; assay: Bactericidal activity against mucA::lox, mutS::lox-deficient Pseudomonas aeruginosa PAOMSA biofilm assessed as increase in viable cells at 4 ug/ml for 4 days; assay type: functional, organism-based
[17] = tested on: Pseudomonas aeruginosa; assay: Bactericidal activity against Pseudomonas aeruginosa PAO1 biofilm assessed as reduction in bacterial load at => 4 ug/ml upto 7 days; assay type: functional, organism-based
[18] = tested on: Pseudomonas aeruginosa; assay: Antimicrobial activity against mucA::lox-deficient Pseudomonas aeruginosa PAOMA planktonic cells by microdilution method; assay type: functional
[19] = tested on: Pseudomonas aeruginosa; assay: Bactericidal activity against Pseudomonas aeruginosa PAO1 biofilm assessed as reduction in bacterial load at 256 ug/ml for 7 days measured on day 1; assay type: functional
[20] = tested on: Pseudomonas aeruginosa; assay: Antimicrobial activity against nfxB gene-deficient Pseudomonas aeruginosa PAONB assessed as increase in viable cells at 0.5 to 4 ug/ml after 24 hrs relative to wild-type; assay type: functional

## CC[C@H]1OC(=O)[C@H](C)[C@@H](O[C@H]2C[C@@](C)(OC)[C@@H](O)[C@H](C)O2)[C@H](C)[C@@H](O[C@@H]2O[C@H](C)C[C@H](N(C)C)[C@H]2O)[C@](C)(O)C[C@@H](C)CN(C)[C@H](C)[C@@H](O)[C@]1(C)O [AZITHROMYCIN]
[1]
  Activity: Active
[2]
  MIC: 128 µg/mL (≈ 171 µM)
[3]
  MIC: 128 µg/mL (≈ 171 µM)
[4]
  fold change (FC): 5000
[5]
  Activity: inactive
[6]
  log10cfu: 2
[7]
  log10cfu: 4
[8]
  fold change (FC): 50
[9]
  MIC: 128 µg/mL (≈ 171 µM)
[10]
  log10cfu: 2
[11]
  Activity: inactive
[12]
  log10cfu: 2
[13]
  Activity: inactive
[14]
  Activity: inactive
[15]
  fold change (FC): 1
[16]
  Activity: inactive
[17]
  Activity: Active
[18]
  MIC: 128 µg/mL (≈ 171 µM)
[19]
  log10cfu: 4
[20]
  fold change (FC): 1
